Measurements reported in patent US10927128B2, “Oxadiazaspiro compounds for the treatment of drug abuse and addiction” (ESTEVE PHARMACEUTICALS, S.A., priority 2015, dated 2021).
Like-named read-outs stand apart in the source and are kept apart here.

Target: human σ1 receptor (Homo sapiens (Human), UniProt Q99720)
Experiment: Human σ1 receptor radioligand assay
Format: binding
Experimental: Human σ1 Receptor Radioligand Assay
To investigate binding properties of test compounds to human σ1 receptor, transfected HEK-293 membranes and [^3H](+)-pentazocine (Perkin Elmer, NET-1056), as the radioligand, were used. The assay was carried out with 7 μg of membrane suspension, 5 nM of [^3H](+)-pentazocine in either absence or presence of either buffer or 10 μM Haloperidol for total and non-specific binding, respectively. Binding buffer contained Tris-HCl 50 mM at pH 8. Plates were incubated at 37° C. for 120 minutes. After the incubation period, the reaction mix was then transferred to Multiscreen HTS, FC plates (Millipore), filtered and plates were washed 3 times with ice-cold 10 mM Tris-HCL (pH7.4). Filters were dried and counted at approximately 40% efficiency in a MicroBeta scintillation counter (Perkin-Elmer) using EcoScint liquid scintillation cocktail

Sequence of human σ1 receptor (Q99720 whole entry): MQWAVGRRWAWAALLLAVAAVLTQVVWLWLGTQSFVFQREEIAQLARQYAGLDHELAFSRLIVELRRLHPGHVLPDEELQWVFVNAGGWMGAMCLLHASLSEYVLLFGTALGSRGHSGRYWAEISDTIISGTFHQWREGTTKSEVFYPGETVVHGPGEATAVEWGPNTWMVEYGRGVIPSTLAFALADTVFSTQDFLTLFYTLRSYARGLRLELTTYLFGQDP

SMILES | Ki ([3H](+)-pentazocine radioligand, transfected HEK-293 membranes, read-out: Ki-σ1) [nM] | Ki [nM]
CCN1CC(C)OC2(CCN(CCc3ccccc3)CC2)C1 (centres unmarked) [Example 112, 4-Ethyl-2-methyl-9-phenethyl-1-oxa-4,9-diazaspiro[5.5]undecane] | < 100 | –
CCN1CC2(CCN(CCC(C)(C)C)CC2)O[C@@H](C)C1=O [Example 52, (S)-9-(3,3-dimethylbutyl)-4-ethyl-2-methyl-1-oxa-4,9-diazaspiro[5.5]undecan-3-one] | – | 100 to 500
